This is an account of results in patent US20010046478A1, “Antiinfective combinations and their use for the topical treatment of fungal infections of the toenails and fingernails” (priority 2000, published 2001).

A short description of data set [1]: Amount of antimycotic in the nail after topical application of the lacquer compositions, HPLC after extraction of distal nail material. The data set is classed as in vivo, human. The method, then: The amount of antimycotic in the nail after application of the compositions according to the invention was determined by HPLC measurements after extraction of distal nail material obtained on cutting the nails of volunteers.
After treatment 2× a week for 6 weeks, the values found for the composition of Example 3 were as follows:
After treatment 2× a week for 2 weeks, the values found for the composition of Example 4 were as follows: […]

For data set [2] the following is noted: oral administration of 100 mg of itraconazole each day for 3 months; cited from earlier work.
[3] abbreviates: composition of Example 3, topical, treatment 2x a week for 6 weeks, distal nail material of volunteers.

On to `Cc1cc(C2CCCCC2)n(O)c(=O)c1` [ciclopirox, 6-cyclohexyl-1-hydroxy-4-methyl-2(1H)-pyridone], for which the “amount of antimycotic in the nail” value was 140 μg/g of nail in data set [1] (setting [3]) and 92 μg/g of nail in data set [1] (composition of Example 4, topical, treatment 2x a week for 2 weeks, distal nail material of volunteers). In the case of `OC(Cn1cncn1)(Cn1cncn1)c1ccc(F)cc1F` [fluconazole, α-(2,4-difluorophenyl)-α-(1H-1,2,4-triazol-1-ylmethyl)-1H-1,2,4-triazol-1-ethanol], in data set [1] (human, in vivo, 2 weeks), the “amount of antimycotic in the nail” value was 17 μg/g of nail. For `CCC(C)n1ncn(-c2ccc(N3CCN(c4ccc(OCC5COC(Cn6cncn6)(c6ccc(Cl)cc6Cl)O5)cc4)CC3)cc2)c1=O` (centres unmarked) [itraconazole], in data set [1] (setting [3]), the “amount of antimycotic in the nail” value is 800 ng/g of nail. Besides, the “itraconazole concentration in the distal nail plate” value in data set [2] was 100 ng/g of nail.
